The values below come from article PMC11845477, “Exploring the principles behind antibiotics with limited resistance” (Nature Communications, 2025).

For assay [1], the system named is P. aeruginosa ATCC BAA-3107 (SEN) and P. aeruginosa LESB58 (MDR). The experiment in a line: Frequency-of-resistance (FoR) assay, relative MIC of mutants. The format is cell-based, Pseudomonas aeruginosa. The method, boiled down:
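About 10^10 cells, grown overnight in MHB at 37 °C and washed, were plated on agar containing antibiotic at concentrations the strain is susceptible to, for 48 h at 37 °C. Ten colonies from the highest concentration were MIC-tested; relative MIC = MICevolved/MICancestor.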

The test system is the same in assay [2]. The experiment in a line: Adaptive laboratory evolution (ALE), relative MIC of evolved lines. The format is cell-based, Pseudomonas aeruginosa. The method, boiled down:
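Ten parallel populations per antibiotic–ancestor pair were evolved in MHB at 37 °C, starting near 50% growth-inhibiting drug. Every 72 h they were passaged into 0.5–2.5× increasing concentrations, keeping the highest-drug well with OD600 > 0.2.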

As for polymyxin-B, the MIC of evolved line in assay [1] (P. aeruginosa ATCC BAA 3107 (PA-SEN), evolved line 1) stood at 1 µg/mL; in assay [1] (P. aeruginosa ATCC BAA 3107 (PA-SEN), evolved line 2), 1 µg/mL; in assay [1] (P. aeruginosa ATCC BAA 3107 (PA-SEN), evolved line 3), 1 µg/mL; in assay [1] (P. aeruginosa LESB 58 (PA-MDR), evolved line 1) it was 4 µg/mL; in assay [1] (P. aeruginosa LESB 58 (PA-MDR), evolved line 2), 4 µg/mL; in assay [1] (P. aeruginosa LESB 58 (PA-MDR), evolved line 3), 4 µg/mL. Moreover, the MIC of evolved line in assay [2] (PA-MDR (P. aeruginosa LESB 58), evolved line 4 of the given antibiotic) is 4 µg/mL; in assay [2] (PA-MDR (P. aeruginosa LESB 58), evolved line 5 of the given antibiotic) it was 4 µg/mL; in assay [2] (PA-MDR (P. aeruginosa LESB 58), evolved line 7 of the given antibiotic), 32 µg/mL; in assay [2] (PA-MDR (P. aeruginosa LESB 58), evolved line 8 of the given antibiotic), 8 µg/mL; in assay [2] (PA-MDR (P. aeruginosa LESB 58), evolved line 10 of the given antibiotic) it was 16 µg/mL; in assay [2] (PA-MDR LESB 58, evolved line 1) it was 64 µg/mL. Moreover, the MIC of evolved line amounted to 256 µg/mL in assay [2] (PA-MDR LESB 58, evolved line 2); 16 µg/mL in assay [2] (PA-MDR LESB 58, evolved line 3); 32 µg/mL in assay [2] (PA-SEN (P. aeruginosa ATCC BAA 3107), evolved line 1 of the given antibiotic); 32 µg/mL in assay [2] (PA-SEN (P. aeruginosa ATCC BAA 3107), evolved line 4 of the given antibiotic); 32 µg/mL in assay [2] (PA-SEN (P. aeruginosa ATCC BAA 3107), evolved line 5 of the given antibiotic); 4 µg/mL in assay [2] (PA-SEN (P. aeruginosa ATCC BAA 3107), evolved line 6 of the given antibiotic). Also, the MIC of evolved line is 16 µg/mL in assay [2] (PA-SEN (P. aeruginosa ATCC BAA 3107), evolved line 7 of the given antibiotic); 16 µg/mL in assay [2] (PA-SEN (P. aeruginosa ATCC BAA 3107), evolved line 8 of the given antibiotic); 4 µg/mL in assay [2] (PA-SEN (P. aeruginosa ATCC BAA 3107), evolved line 9 of the given antibiotic); 4 µg/mL in assay [2] (PA-SEN (P. aeruginosa ATCC BAA 3107), evolved line 10 of the given antibiotic).
